# Test results as given in ChEMBL document CHEMBL1151707, “Novel 3-phenylpropane-1,2-diamine derivates as inhibitors of aminopeptidase N (APN)” (Bioorg Med Chem, 2008).
# Experiments:
# [1] = target: T1, Aminopeptidase N (Sus scrofa, UniProt P15145); experiment: Inhibition of pig kidney microsome aminopeptidase N by UV-visible spectrophotometer
# T1 sequence (P15145 whole entry): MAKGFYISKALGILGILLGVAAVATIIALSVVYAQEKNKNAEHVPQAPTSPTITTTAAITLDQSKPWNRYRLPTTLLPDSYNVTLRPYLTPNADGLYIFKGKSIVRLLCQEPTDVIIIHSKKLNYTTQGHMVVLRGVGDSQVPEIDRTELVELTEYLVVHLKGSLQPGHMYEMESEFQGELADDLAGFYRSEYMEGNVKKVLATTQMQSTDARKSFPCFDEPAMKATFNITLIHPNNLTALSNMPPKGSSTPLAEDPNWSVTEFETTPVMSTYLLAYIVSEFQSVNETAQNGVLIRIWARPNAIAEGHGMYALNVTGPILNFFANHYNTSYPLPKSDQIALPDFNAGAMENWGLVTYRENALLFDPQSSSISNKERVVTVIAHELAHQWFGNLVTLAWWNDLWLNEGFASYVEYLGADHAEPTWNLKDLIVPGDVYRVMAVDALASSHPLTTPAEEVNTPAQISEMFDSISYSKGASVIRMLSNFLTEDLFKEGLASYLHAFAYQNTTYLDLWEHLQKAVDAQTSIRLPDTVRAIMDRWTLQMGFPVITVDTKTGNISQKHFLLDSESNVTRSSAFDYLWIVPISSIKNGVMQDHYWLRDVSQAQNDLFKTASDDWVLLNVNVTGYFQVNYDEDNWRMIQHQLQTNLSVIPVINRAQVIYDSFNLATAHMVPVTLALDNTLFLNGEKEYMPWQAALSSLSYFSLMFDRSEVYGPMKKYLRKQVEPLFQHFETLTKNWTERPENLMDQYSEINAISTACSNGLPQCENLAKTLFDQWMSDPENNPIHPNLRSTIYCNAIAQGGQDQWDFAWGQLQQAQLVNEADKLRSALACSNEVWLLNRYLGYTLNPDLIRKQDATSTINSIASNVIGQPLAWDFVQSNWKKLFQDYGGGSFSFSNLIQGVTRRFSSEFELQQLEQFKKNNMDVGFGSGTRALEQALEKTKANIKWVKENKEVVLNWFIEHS
# [2] = target: 72 kDa type IV collagenase (Homo sapiens, UniProt P08253); experiment: Inhibition of MMP2
# 72 kDa type IV collagenase, sequence (P08253 whole entry): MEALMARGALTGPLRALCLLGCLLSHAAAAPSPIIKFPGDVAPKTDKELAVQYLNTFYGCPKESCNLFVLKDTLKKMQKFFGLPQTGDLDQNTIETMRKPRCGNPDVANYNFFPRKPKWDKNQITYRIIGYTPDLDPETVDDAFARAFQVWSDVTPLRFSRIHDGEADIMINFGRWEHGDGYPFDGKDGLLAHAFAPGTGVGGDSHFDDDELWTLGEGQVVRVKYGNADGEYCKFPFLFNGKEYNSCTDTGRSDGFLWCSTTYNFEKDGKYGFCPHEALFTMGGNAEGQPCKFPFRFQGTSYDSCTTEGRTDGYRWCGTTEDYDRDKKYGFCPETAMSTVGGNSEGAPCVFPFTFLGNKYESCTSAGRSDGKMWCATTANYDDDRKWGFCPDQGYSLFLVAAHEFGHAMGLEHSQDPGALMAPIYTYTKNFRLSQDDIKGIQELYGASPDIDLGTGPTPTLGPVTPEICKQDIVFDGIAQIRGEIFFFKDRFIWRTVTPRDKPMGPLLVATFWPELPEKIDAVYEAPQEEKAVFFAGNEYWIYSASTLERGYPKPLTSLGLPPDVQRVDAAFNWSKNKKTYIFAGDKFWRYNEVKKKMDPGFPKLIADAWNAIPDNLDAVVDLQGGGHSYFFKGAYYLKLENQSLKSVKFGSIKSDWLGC
# [3] = test system: HL-60; experiment: Antiproliferative activity against human HL-60 cells after 48 hrs by MTT assay; assay type: functional, cell-based; details: HL-60, 48 h
IC50 [1] [µM],IC50 [2] [µM],IC50 [3] [µM],Compound
409,11.2,,NCCC(=O)NC[C@H](N)Cc1ccccc1
492,329,,N[C@@H](CNC(=O)/C=C/c1ccc(O)c(O)c1)Cc1ccccc1
164,99.7,,NCCCCCC(=O)NC[C@H](N)Cc1ccccc1
> 1000,> 1000,,N[C@@H](CNC(=O)Cc1ccccc1Nc1c(Cl)cccc1Cl)Cc1ccccc1
596,211,,N[C@@H](CNC(=O)/C=C/c1ccccc1)Cc1ccccc1
476,151,,CC(C)[C@H](N)C(=O)NC[C@H](N)Cc1ccccc1
15.5,183,630,N[C@@H](CNC(=O)[C@H](Cc1ccccc1)NC(=O)[C@@H](N)Cc1ccccc1)Cc1ccccc1
204,101,,N[C@@H](CNC(=O)c1cc([N+](=O)[O-])cc([N+](=O)[O-])c1)Cc1ccccc1
164,99.7,,NCCCC[C@H](N)C(=O)NC[C@H](N)Cc1ccccc1
119,112,,CSCC[C@H](N)C(=O)NC[C@H](N)Cc1ccccc1
50.5,219,,NCCC[C@H](N)C(=O)NC[C@H](N)Cc1ccccc1
> 1000,772,,C[C@H](N)C(=O)NC[C@H](N)Cc1ccccc1
> 1000,802,,NC(=O)CC[C@H](N)C(=O)NC[C@H](N)Cc1ccccc1
21.1,78.8,1090,N[C@@H](CNC(=O)[C@@H](N)CS)Cc1ccccc1
33.7,202,,N[C@@H](CNC(=O)[C@@H](N)CO)Cc1ccccc1
290,547,,N[C@@H](CNC(=O)CCc1ccccc1)Cc1ccccc1
> 1000,221,,N[C@@H](CNC(=O)CCCc1ccccc1)Cc1ccccc1
> 1000,23.5,,NCC(=O)NC[C@H](N)Cc1ccccc1
142,170,,CC(C)C[C@H](N)C(=O)NC[C@H](N)Cc1ccccc1
> 1000,632,,N[C@@H](CNC(=O)Cc1ccccc1)Cc1ccccc1
,162,,CC(C)C[C@H](NC(=O)[C@@H](O)[C@H](N)Cc1ccccc1)C(=O)O [UBENIMEX]
